Patent US7713926B2, “Method of producing partial peptide of enolase protein from Plasmodium falciparum” (National University Corporation Gunma University, priority 2004, dated 2010)

System: antibodies existing in sera from Plasmodium falciparum malaria patients and non-infected individuals
Test: Fluorescent ELISA of human sera on plate-fixed peptide compound (antibody level)
Format: binding
Conditions: peptide fixed on plastic plate as antigen
Description: An antigen solution was prepared by dissolving 500 μg of the peptide compound (SEQ ID NO: 13) synthesized in Example 10 in 100 μl of dimethyl sulfoxide and by subsequently adding 1900 μl of a 0.05 M carbonate buffer (pH 9.6). The prepared antigen solution was dispensed by […] in each of […] on a plastic plate for fixation of the peptide compound.
The sera collected from Plasmodium falciparum malaria patients under informed consent at hospitals in Japan were used as subject sera, and the sera collected from non-infected individuals under informed consent in Japan were used as control sera. The subject sera and the control sera were individually added to the wells on the plastic plate to allow the antibodies existing in the respective sera to react with the peptide compound (SEQ ID NO: 13).
After removal of the serum, an enzyme-labeled secondary antibody against human immunoglobulin was added to each well for the immunological reaction. […] The measured antibody levels were expressed by relative fluorescence unit (RFU values).
FIG. 7 is a graph showing antibody levels of sera (1-7) from Plasmodium falciparum-infected patients and those of sera (8-12) from non-infected individuals (for the purpose of comparison) measured by the fluorescent ELISA method with the synthesized peptide compound (SEQ ID NO: 13). […]

H-Glu-Glu-Glu-Glu-Ala-Ser-Glu-Phe-Tyr-Asn-Ser-Glu-Asn-Lys-Thr-Tyr-Asp-Leu-Asp-Phe-Lys-Thr-Pro-Asn-Asn-Asp-Gly-Gly-OH (H-EEEEASEFYNSENKTYDLDFKTPNNDGG-OH) [SEQ ID NO: 13, partial peptide of enolase from Plasmodium falciparum, used as ELISA antigen]
average antibody level of the non-infected individuals (control sera (8-12) from non-infected individuals, same fluorescent ELISA): 67 RFU
average antibody level of the malaria patients (sera (1-7) from Plasmodium falciparum-infected patients, enzyme-labeled secondary antibody against human immunoglobulin, 4-methylumbelliferyl phosphate): 181 RFU
